Experimental data as given in patent US20240043473A1, “NOOTROPIC PEPTIDES FOR TREATING LYSOSOMAL STORAGE DISEASES” (Phoenix Nest Inc., priority 2021, published 2024).
Entries after “also recorded” stand apart in the source; their conditions may differ. No end group written: not given here.

Experiments:
[1] = mouse, in vivo
Method: WT C57B16 4-month-old male mouse was dosed intranasally with 10 μl of 50 mM AVP6 in saline (5 μl/nostril). One hour after dosing, the mouse was anesthetized with sodium pentobarbital, and 500 μl of blood collected by cardiac puncture. Mouse was then sacrificed by cranial dislodgement and its brain and visceral organs extracted. Tissues and blood plasma were homogenized in acetonitrile (1:4, tissue/solvent ratio). The extracts were spiked with heavy isotope-labelled (Phe U-^13C9; U-^15N) AVP6 peptide as an internal standard, and analyzed by targeted LC-MS/MS, using parallel reaction monitoring on Orbitrap Exploris 480 instrument.
Peptide pharmaco-kinetics was determined by evaluation of AVP6 levels in CNS, blood and peripheral tissues at different time points (1-48 h) after intranasal delivery in the WT mice. The entire mouse brain was cut in four sections, rostral to caudal and assessed for biodistribution of AVP6 by targeted LC-MS/MS using parallel reaction monitoring. For quantification, samples were spiked with isotopically labeled (Phe U-^13C9; U-^15N) AVP6 peptide as an internal standard. Peptide levels were also measured in peripheral (liver, kidney, spleen) tissues and in blood to provide insights into peptide biodistribution and degradation rates.

[2] = tested on: Hgsnat^P304L MPS IIIC mice; experiment: Open Field test; type: in vivo, mouse; conditions: 6-month-old Hgsnat^P311L (P304L) mice
[3] = tested on: CA1 pyramidal neurons in acute hippocampal slices from Hgsnat-Geo and Hgsnat^P304L mice; experiment: Miniature excitatory postsynaptic currents (mEPSC), whole cell voltage clamp in acute hippocampal slices; type: cell-based, mouse; conditions: for mEPSC amplitude and frequency deficits: Hgsnat-Geo and Hgsnat^P311L (P304L) slices
Method: Models and developmental time points: Hippocampal slices from Hgsnat-Geo and Hgsnat^P304L mice; P14-20 and P45-60.
Method: Whole cell voltage clamp electrophysiology recordings (miniature synaptic currents) were conducted on CA1 pyramidal neurons in acute hippocampal slices.
Acute hippocampal slices were prepared as follows. Briefly, animals were anaesthetized deeply with isoflurane and decapitated. The brain was dissected carefully and transferred rapidly into an ice-cold (0-4° C.) solution containing the following (in mM): 250 sucrose, 2 KCl, 1.25 NaH2PO4, 26 NaHCO3, 7 MgSO4, 0.5 CaCl2 and 10 glucose, pH 7.4. The solution was oxygenated continuously with 95% O2 and 5% CO2, 330-340 mOsm/L. Transverse hippocampal slices (thickness, 300 μm) were cut using a vibratome (VT1000S; Leica Microsystems), transferred to a bath at room temperature (23° C.) with standard ACSF at pH 7.4 containing the following (in mM): 126 NaCl, 3 KCl, 1 NaH2PO^4, 25 NaHCO3, 2 MgSO4, 2 CaCl2), 10 glucose, continuously saturated with 95% 02 and 5% CO2 and allowed to recover for 1 h. During the experiments, slices were transferred to the recording chamber at physiological temperature (30-33° C.) continuously perfused with standard ACSF, as described above, at 2 ml/min. Pyramidal CA1 neurons from the hippocampus were identified visually using a 40× water immersion objective. Whole-cell patch-clamp recordings were obtained from single cells in voltage- or current-clamp mode and only 1 cell per slice was recorded to enable post-hoc identification and immunohistochemical processing. Recording pipettes (4-6 MΩ) were filled with a K-gluconate based solution for voltage-clamp recordings (in mM): 130 K-gluconate, 10 KCl, 5 diNa-phosphocreatine. 10 HEPES, 2.5 MgCl2, 0.5CaCl2,1 EGTA, 3 ATP-Tris, 0.4 GTP-Li, 0.3% biocytin, pH 7.2-7.4, 280-290 mOsm/L.
After obtaining whole cell configuration, passive membrane properties were monitored for 5 min and current clamp recordings were done to measure action potential characteristics. […]. Cells were voltage clamped at −70 mV for mEPSCs recording and then held at 0 mV (calculated from the reversal potential of Cl) for mIPSCs recording. Data acquisition (filtered at 2-3 kHz and digitized at 15 kHz; Digidata 1440A, Molecular Devices, CA, USA) was performed using the Axopatch 200B amplifier and the Clampex 10.6 software (Molecular Devices). Both mEPSCs and mIPSCs were recorded for 7 min and a running template on a stable baseline (minimum of 30 events) was used for the analysis of miniature events on MiniAnalysis. Clampfit 10.2 software was used for analysis of action potential characteristics and other passive membrane properties.
This example tested AVP6's effect on synaptic signaling in acute hippocampal slices of MPS IIIC (both Hgsnat^Geo and Hgsnat^P304L) mice. […]

[4] = Body weight measured weekly during chronic administration; type: in vivo, mouse; conditions: chronic intranasal administration; Hgsnat^P304L or WT mice
Method: WT, and Hgsnat^P304L mice were randomly assigned to the treatment and control groups. The cohort size (18 mice/sex/treatment) was calculated based on mean variability of replicates in previous behavioral tests in Hgsnat^P304L mice to detect a ˜40% difference between means (power=0.8). Treatment was started at weaning (P21) which corresponds to neurodevelopmental human age of 3 years, the time of disease onset for majority of Sanfilippo patients. Since most patients are diagnosed post-symptomatically, this age would most likely become the treatment starting point for the most of patients. […] To test if chronic administration of the peptide results in major metabolic changes, the mouse body weight was measured weekly.

MIP1α = experiment: Expression of inflammatory cytokine in brain (real-time qPCR); type: in vivo, mouse; conditions: chronic daily 50 μg/kg BW; Hgsnat^P304L mice at 5 months; vs saline
Method: RNA was isolated from snap-frozen brain, kidney and liver tissues using the TRIzol reagent (Invitrogen) and reverse-transcribed using the iScript™ Reverse Transcription Supermix (Bio RAD #1708840) according to the manufacturer's protocol, qPCR was performed using a LightCycler® 96 Instrument (Roche) and SsoFast™ EvaGreen® Supermix with Low ROX (Bio RAD #1725211) according to the manufacturer's protocol. RLP32 mRNA was used as a reference control.
Starting from 3 weeks of age, WT C57B16 and homozygous Hgsnat^P304L male and female mice were randomly divided in treatment and control groups (6-13 mice/sex/genotype/treatment; see Table I). The control group was daily administered with saline (5 μL to each nostril), while for the treatment group, saline was supplemented with 125 µg of AVP6/mL, which would result in a dose of approximately 50 μg/kg BW/day. The peptide formulation was prepared once, aliquoted and kept frozen at −80° C. until use. At 4 months, all mice were studied by EPM, OF, YM and NOR behavioral tests. Administration of the drug or saline was continued through the days on which the assays were conducted. Then approximately at 5 months 4-5 mice in each group were sacrificed. […] When such signs were detected, the mice were studied by ERG and sacrificed within 1-2 days. […]

Hgsnat^P304L mice = experiment: Wet spleen weight at sacrifice (splenomegaly); type: in vivo, mouse; conditions: chronic daily 50 μg/kg BW; Hgsnat^P304L mice at sacrifice (9.5-11 months); vs saline
[5] = single intranasal 10 μg/kg (low dose)
[6] = single intranasal 500 μg/kg (high dose)

AVP6: N-terminally acetylated Semax, a nootropic peptide having the amino acid sequence of MEHFPGP (SEQ ID NO:1) (Ac-MEHFPGP)
time the peptide level in the brain remained above the estimated acting concentration [1]: 17 h
hyperactivity, Open Field [2, 5]: failed to rescue hyperactivity or reduced anxiety; also recorded: do not rescue hyperactivity
reduced anxiety, Open Field [2, 5]: failed to rescue hyperactivity or reduced anxiety
hyperactivity, Open Field [2, 6]: failed to rescue hyperactivity or reduced anxiety; also recorded: do not rescue hyperactivity
reduced anxiety, Open Field [2, 6]: failed to rescue hyperactivity or reduced anxiety
mEPSC amplitude and frequency deficits ([3]; 10 μM bath application, P14-20): recovered deficits in mEPSC amplitude and frequency; also recorded: deficit is rescued
mEPSC amplitude and frequency deficits ([3]; 10 μM bath application, P45-60): recovered deficits in mEPSC amplitude and frequency; also recorded: deficit is rescued
mEPSC amplitude and frequency in WT animals ([3]; 10 μM bath application, P45-60, WT slices): trend for an increase
reduced amplitude and frequency of mEPSC ([3]; acute bath application, MPSIIIC mouse hippocampal slices (Example 1, FIG. 1)): significant restoration
body weight and body weight gain, treated vs untreated [4]: No difference in body weight and body weight gain
expression levels of inflammatory cytokine MIP1α in the brain (MIP1α): reduced expression levels
spleen weight / splenomegaly (Hgsnat^P304L mice): significantly lower spleen weight
